Laboratory results: patent US9138411B2 (University of North Texas Health Science Center, priority 2012, dated 2015)

Conditions: human, in vivo, 4.5 mg/kg

COc1cc(/C=C/C(=O)CC(=O)/C=C/c2ccc(O)c(OC)c2)ccc1O [curcumin, diferuloylmethane]
blood plasma levels: 5 to 11 µmol
